# Test results as given in patent US20230227838A1, “ENHANCED CELL SURVIVAL AGAINST BIOTIC AND ABIOTIC STRESSES THROUGH SALICYLICK ACID-INDUCED NPR1 CONDENSATES” (priority 2020, published 2023).
# Key:
# [1] = system: ETI activated by RPP1; assay: ATR1/RPP1-induced cell death (conductivity assay); type: in vivo, Nicotiana benthamiana; settings: SA/NPR1-mediated; 1 mM SA
# Description: (§1) Chemical treatment, pathogen infection and cell death assays. […] At 2 days, the bacterial colonies were scored.
# VIGS assay. The silencing of NbNPR1 (NbNPR1-RNAi) and NbCUL3 (NbCUL3-RNAi) was done using VIGS assay performed as previously described. Ten-day-old WT N. benthamiana plants were inoculated with Agrobacteria (GV3101) carrying the helper plasmid pTRV1-LIC mixed at 1:1 with a strain carrying either pTRV2-LIC (empty vector control, E.V.), pTRV2-NbPDS (positive control), pTRV2-NbNPR1 or pTRV2-NbCUL3 vectors. Ten days later, gene silencing in the mock and SA-treated plants was verified in the systemic leaves by qPCR using gene-specific and reference gene (eIF4a) primers (Table 6). NbNPR1 silencing was additionally confirmed by analysis of NbPR1 expression. The silenced leaves were used in the standard transient expression assay by agroinfiltration using strains carrying the indicated test genes; and gene expression was assayed at 2 dpi.
# [2] = molecular target: T1, endogenous NPR1 (Arabidopsis thaliana, UniProt P93002); assay: Cell fractionation of endogenous NPR1 (cytoplasmic/nuclear); type: in vivo; settings: 6 hr, Col-0
# T1 construct: from tissue; host or cells: leaf tissue of three-week-old Arabidopsis Col-0 plants
# T1 sequence (P93002 1-593): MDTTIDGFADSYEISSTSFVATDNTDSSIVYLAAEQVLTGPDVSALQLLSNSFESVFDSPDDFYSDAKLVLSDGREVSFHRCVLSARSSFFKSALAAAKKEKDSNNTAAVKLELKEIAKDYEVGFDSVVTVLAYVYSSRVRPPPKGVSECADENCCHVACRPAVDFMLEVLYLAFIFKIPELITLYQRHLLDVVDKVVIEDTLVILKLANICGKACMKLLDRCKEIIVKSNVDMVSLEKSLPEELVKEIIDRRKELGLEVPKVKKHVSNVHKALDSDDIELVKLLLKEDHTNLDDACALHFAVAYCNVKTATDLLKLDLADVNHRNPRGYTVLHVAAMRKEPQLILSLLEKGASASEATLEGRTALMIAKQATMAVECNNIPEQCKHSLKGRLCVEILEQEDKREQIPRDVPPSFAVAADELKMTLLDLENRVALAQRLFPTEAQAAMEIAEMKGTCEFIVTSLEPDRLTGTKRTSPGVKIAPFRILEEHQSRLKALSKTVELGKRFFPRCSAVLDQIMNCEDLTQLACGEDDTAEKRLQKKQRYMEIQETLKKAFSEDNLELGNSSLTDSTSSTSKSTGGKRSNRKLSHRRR
# Protocol: Cell fractionation. Cytoplasmic and nuclear proteins were sequentially isolated from three-week-old Arabidopsis (Col-0) plants using 1 g of leaf tissue and a sucrose gradient protocol described previously with modifications. Tissue was homogenized in lysis buffer (20 mM Tris-HCl, pH 7.5, 20 mM KCl, 2 mM EDTA, 2.5 mM MgCl2, 25% glycerol, 0.25 M Sucrose) supplemented with 100 μM MG132, EDTA-free protease inhibitor cocktail, 1 mM PMSF and 5 mM DTT. The lysate was filtered through a 70 μm filter and centrifuged at 20,000 g for 15 min at 4° C., and the supernatant was collected (cytoplasmic fraction). The pellet was washed four times with 5 ml of NRBT buffer (20 mM Tris-HCl, pH 7.4, 25% glycerol, 2.5 mM MgCl2, and 0.2% Triton X-100). After the last wash, the pellet was resuspended with 500 μl of NRB2 buffer (20 mM Tris-HCl, pH 7.5, 0.25 M Sucrose, 10 mM MgCl2, 0.5% Triton X-100) supplemented with protease inhibitor cocktail and 5 mM BME. The obtained suspension was layered at 1:1 on top of the NRB3 buffer (20 mM Tris-HCl, pH 7.5, 1.7 M Sucrose, 10 mM MgCl2, 0.5% Triton X-100) supplemented with protease inhibitor cocktail and 5 mM BME, centrifuged at 16,000 g for 45 min at 4° C. The top layer was removed and the pellet was resuspended with 200 μl of plant extraction buffer containing 1% Triton X-100, protease inhibitor cocktail and 5 mM BME (nuclear fraction). […]
# [3] = system: WRKY70-GFP; assay: Stability and ubiquitination of WRKY70-GFP; type: in vivo, Arabidopsis thaliana
# Protocol: as §1
# Protein analysis and IP. Recombinant protein analysis was performed using transient expression in N. benthamiana, or stable over-expression in transgenic Arabidopsis, or expression in E. coli. Total protein extraction from plants was performed by homogenizing leaf tissue in the plant extraction buffer [50 mM Tris-HCl (pH 7.5), 150 mM NaCl, 5 mM EDTA, 0.2% Triton X-100, 0.2% Nonidet P-40] supplemented with 1 mM PMSF, 100 μM MG132, and EDTA-free protease inhibitor cocktail (Roche). For ubiquitinated protein analysis in plants, 100 μM of DUB (deubiquitinase) inhibitor (LifeSensors) and 10 mM NEM were added. Next, the lysates were cleared by centrifugation at 14,000 rpm for 15 min followed by filtering through a 0.2 μm filter. […] Pull-downs or IP experiments were done on total protein extracts by incubating protein samples in the lysis buffer overnight with indicated affinity tag or antibody conjugated to agarose or magnetic beads: GFP-trap agarose beads (Chromotek) for GFP fusions; RFP-trap agarose beads (Chromotek) for mCherry fusions; anti-HA magnetic beads (ThermoFisher) for HA tag fusions; anti-DYKDDDDK coupled magnetic agarose (ThermoFisher) for FLAG tag fusions; and glutathione magnetic agarose (ThermoFisher) for GST fusions. […]
compound,measurement,setting,value
"O=C(O)c1ccccc1O [SA, salicylic acid]",ETI activated by RPP1 (effector ATR1),[1],inhibition
same,subcellular accumulation of endogenous NPR1,[2]; 1 mM SA,more NPR1 accumulated in the cytoplasm
same,subcellular accumulation of endogenous NPR1,[2]; 0.1 and 0.5 mM SA,increased nuclear accumulation
same,ubiquitination of WRKY70-GFP,"[3]; 1 mM SA for 24 h, WT, not npr1-2",increased ubiquitination of WRKY70-GFP
same,WRKY70-GFP protein level,"[3]; 1 mM SA for 24 hr, NPR1- and proteasome-dependent",reduced
